Laboratory results published in PubChem BioAssay AID256 (DTP/NCI, 2004).
Toxic doses and inconclusive results are not listed. Rule for the calls: active = survival T/C of 150% or more; inactive = T/C below 125% in these data. Residues, ends and D or L forms follow the SMILES beside them. *: point of attachment. Cbz = O=C(OCc1ccccc1)*

Tested on: CD2F1 mice, L1210 leukemia ip, survival T/C
Assay: NCI In Vivo Anticancer Drug Screen. Data for tumor model L1210 Leukemia (intraperitoneal) in CD2F1 (CDF1) mice
Settings: higher = longer survival
Method in brief: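 Transplantable tumor in mice; compound-treated vs vehicle-treated groups. Read-out = treated/control ratio of the measured endpoint.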

Measured: T/C

O=c1[nH]cc(Oc2ccccc2)c(=O)[nH]1
inactive: endpoint: mean survival time, dose: 50.0 mg/kg/injection, schedule: Q01DX001 (ip), vehicle: saline with Tween-80 104 % of control | endpoint: mean survival time, dose: 100.0 mg/kg/injection, schedule: Q01DX001 (ip), vehicle: saline with Tween-80 96 % of control | endpoint: mean survival time, dose: 200.0 mg/kg/injection, schedule: Q01DX001 (ip), vehicle: saline with Tween-80 98 % of control

O=C(O)CNC(=O)CNC(=O)CNC(=O)OCc1ccccc1 (Cbz-Gly-Gly-Gly-OH)
inactive: endpoint: mean survival time, dose: 100.0 mg/kg/injection, schedule: Q04DX003 (ip), vehicle: saline with Tween-80 96 % of control | endpoint: mean survival time, dose: 200.0 mg/kg/injection, schedule: Q04DX003 (ip), vehicle: saline with Tween-80 100 % of control | endpoint: mean survival time, dose: 400.0 mg/kg/injection, schedule: Q04DX003 (ip), vehicle: saline with Tween-80 97 % of control

CC([NH-])C[NH-].[Cl][Pt+2][Cl] (stereo not drawn)
inactive: endpoint: mean survival time, dose: 0.31 mg/kg/injection, schedule: Q01DX009 (ip), vehicle: saline with Tween-80 105 % of control | endpoint: mean survival time, dose: 0.62 mg/kg/injection, schedule: Q01DX009 (ip), vehicle: saline with Tween-80 107 % of control | endpoint: mean survival time, dose: 1.25 mg/kg/injection, schedule: Q01DX009 (ip), vehicle: saline with Tween-80 112 % of control | endpoint: mean survival time, dose: 2.5 mg/kg/injection, schedule: Q01DX009 (ip), vehicle: saline with Tween-80 105 % of control | endpoint: mean survival time, dose: 2.5 mg/kg/injection, schedule: Q04DX003 (ip), vehicle: saline with Tween-80 115 % of control | endpoint: mean survival time, dose: 5.0 mg/kg/injection, schedule: Q01DX009 (ip), vehicle: saline with Tween-80 86 % of control | endpoint: mean survival time, dose: 5.0 mg/kg/injection, schedule: Q04DX003 (ip), vehicle: saline with Tween-80 115 % of control

CCOC(NCc1ccc(OC)c(OC)c1)OCC
inactive: endpoint: mean survival time, dose: 100.0 mg/kg/injection, schedule: Q01DX001 (ip), vehicle: saline 98 % of control | endpoint: mean survival time, dose: 200.0 mg/kg/injection, schedule: Q01DX001 (ip), vehicle: saline 98 % of control

CC(C)[C@]12O[C@H]1[C@@H]1O[C@]13[C@]1(O[C@H]1C[C@H]1C4=C(CC[C@@]13C)C(=O)OC4)[C@@H]2O
inactive: endpoint: mean survival time, dose: 0.8 micrograms/kg/injection, schedule: Q01DX009 (ip), vehicle: saline + alcohol 96 % of control | endpoint: mean survival time, dose: 1.6 micrograms/kg/injection, schedule: Q01DX009 (ip), vehicle: saline + alcohol 91 % of control | endpoint: mean survival time, dose: 6.3 micrograms/kg/injection, schedule: Q01DX009 (ip), vehicle: saline + alcohol 93 % of control | endpoint: mean survival time, dose: 12.5 micrograms/kg/injection, schedule: Q01DX009 (ip), vehicle: saline + alcohol 95 % of control | endpoint: mean survival time, dose: 25.0 micrograms/kg/injection, schedule: Q01DX009 (ip), vehicle: saline + alcohol 96 % of control | endpoint: mean survival time, dose: 50.0 micrograms/kg/injection, schedule: Q01DX009 (ip), vehicle: saline + alcohol 90 % of control | endpoint: mean survival time, dose: 100.0 micrograms/kg/injection, schedule: Q01DX009 (ip), vehicle: saline + alcohol 110 % of control | endpoint: median survival time, dose: 0.02 mg/kg/injection, schedule: Q03HX024 (ip), vehicle: saline + alcohol 111 % of control | endpoint: median survival time, dose: 0.03 mg/kg/injection, schedule: Q03HX024 (ip), vehicle: saline + alcohol 120 % of control | endpoint: median survival time, dose: 0.06 mg/kg/injection, schedule: Q01DX009 (ip), vehicle: saline + alcohol 104 % of control | endpoint: median survival time, dose: 0.06 mg/kg/injection, schedule: Q01DX009 (sc), vehicle: saline + alcohol 112 % of control | endpoint: median survival time, dose: 0.13 mg/kg/injection, schedule: Q01DX009 (ip), vehicle: saline + alcohol 120 % of control | endpoint: median survival time, dose: 0.13 mg/kg/injection, schedule: Q01DX009 (sc), vehicle: saline + alcohol 104 % of control | endpoint: median survival time, dose: 0.25 mg/kg/injection, schedule: Q04DX003 (ip), vehicle: saline + alcohol 112 % of control | endpoint: median survival time, dose: 0.25 mg/kg/injection, schedule: Q08DX002 (ip), vehicle: saline + alcohol 107 % of control | endpoint: median survival time, dose: 0.5 mg/kg/injection, schedule: Q01DX001 (sc), vehicle: saline + alcohol 105 % of control | endpoint: median survival time, dose: 0.5 mg/kg/injection, schedule: Q04DX003 (ip), vehicle: saline + alcohol 120 % of control | endpoint: median survival time, dose: 0.5 mg/kg/injection, schedule: Q08DX002 (ip), vehicle: saline + alcohol 115 % of control | endpoint: median survival time, dose: 1.0 mg/kg/injection, schedule: Q01DX001 (sc), vehicle: saline + alcohol 107 % of control | endpoint: median survival time, dose: 1.0 mg/kg/injection, schedule: Q04DX003 (ip), vehicle: saline + alcohol 110 % of control | endpoint: median survival time, dose: 1.0 mg/kg/injection, schedule: Q08DX002 (ip), vehicle: saline + alcohol 116 % of control

CC(C)(CCC(=O)O)c1cccc(Cl)c1
inactive: endpoint: mean survival time, dose: 50.0 mg/kg/injection, schedule: Q01DX009 (ip), vehicle: saline with Tween-80 96 % of control | endpoint: mean survival time, dose: 100.0 mg/kg/injection, schedule: Q01DX009 (ip), vehicle: saline with Tween-80 93 % of control
